Results taken from ChEMBL document CHEMBL1123730, “Synthesis and pharmacological evaluation of a new class of 2-(2-aminothiazol-4-yl)-2-hydrazonoacetamido cephalosporins” (J Med Chem, 1987).
In brackets after ≈: the same amount, converted by molar mass.

Assays:
[1] = Geometrical average of minimum inhibitory concentration was determined in isosensitest broth against gram-negative strains.; type: functional
[2] = Geometrical average of minimum inhibitory concentration was determined in isosensitest broth against gram-positive strains.; type: functional
[3] = tested on: Enterobacter; test: Geometrical average of minimum bactericidal concentration was determined in isosensitest broth against Enterobacter; type: functional
[4] = tested on: Escherichia coli; test: In vivo protective dose was determined in infected swiss mice (120/strain) infected ip with Escherichia coli ISM with an inoculum size-0.5 mL of 10 E6 CFU/mL of suspension. Activity value range is 0.118-0.615; type: functional
[5] = tested on: Neisseria perflava; test: Geometrical average of minimum bactericidal concentration was determined in isosensitest broth against Neisseria perfl.; type: functional
[6] = tested on: Pseudomonas; test: Geometrical average of minimum inhibitory concentration was determined in isosensitest broth against Pseudomonas; type: functional
[7] = Geometrical average of minimum inhibitory concentration was determined in isosensitest broth against, gram-positive strains.; type: functional
[8] = tested on: Alcaligenes; test: Geometrical average of minimum bactericidal concentration was determined in isosensitest broth against Alcaligenes; type: functional
[9] = tested on: Klebsiella; test: Geometrical average of minimum inhibitory concentration was determined in isosensitest broth against Klebsiella; type: functional
[10] = tested on: Escherichia coli; test: Geometrical average of minimum bactericidal concentration was determined in isosensitest broth against Escherichia coli; type: functional
[11] = tested on: Pseudomonas; test: Geometrical average of minimum bactericidal concentration was determined in isosensitest broth against Pseudomonas; type: functional
[12] = tested on: Salmonella; test: Geometrical average of minimum inhibitory concentration was determined in isosensitest broth against Salmonella; type: functional
[13] = Geometrical average of minimum inhibitory concentration in isosensitest broth against, gram-negative strains.; type: functional
[14] = tested on: Salmonella; test: Geometrical average of minimum bactericidal concentration was determined in isosensitest broth against Salmonella; type: functional
[15] = tested on: Escherichia coli; test: Geometrical average of minimum inhibitory concentration was determined in isosensitest broth against Escherichia coli; type: functional
[16] = tested on: Staphylococcus; test: (§1) Geometrical average of minimum inhibitory concentration was determined in isosensitest broth against Staphylococcus; type: functional
[17] = tested on: Serratia; test: Geometrical average of minimum inhibitory concentration was determined in isosensitest broth against Serratia; type: functional
[18] = tested on: Klebsiella pneumoniae; test: In vivo protective dose was determined in infected swiss mice (120/strain) infected ip with Klebsiella pneumoniae 102 with an inoculum size-0.5 mL of 10 E5 CFU/mL of suspension. Activity value range is 1.82-7.92; type: functional
[19] = tested on: Bacillus; test: Geometrical average of minimum inhibitory concentration was determined in isosensitest broth against Bacillus; type: functional
[20] = tested on: Alcaligenes; test: Geometrical average of minimum inhibitory concentration was determined in isosensitest broth against Alcaligenes; type: functional
[21] = tested on: Serratia; test: Geometrical average of minimum bactericidal concentration was determined in isosensitest broth against Serratia; type: functional
[22] = tested on: Escherichia coli; test: Minimum inhibitory concentration was determined against Escherichia coli ISM with an inoculum size-0.5 mL of 10 E6 CFU/mL of suspension; type: functional
[23] = tested on: Staphylococcus; test: (§2) Geometrical average of minimum bactericidal concentration was determined in isosensitest broth against Staphylococcus; type: functional
[24] = tested on: Sarcina; test: Geometrical average of minimum inhibitory concentration was determined in isosensitest broth against Sarcina; type: functional
[25] = tested on: Staphylococcus; test: as §1; type: functional; remark: listed apart in the source
[26] = tested on: Staphylococcus; test: as §2; type: functional; remark: listed apart in the source
[27] = tested on: Klebsiella pneumoniae; test: Minimum inhibitory concentration was determined against Klebsiella pneumoniae 102 with an inoculum size-0.5 mL of 10 E5 CFU/mL of suspension; type: functional
[28] = tested on: Bacillus; test: Geometrical average of minimum bactericidal concentration was determined in isosensitest broth against Bacillus; type: functional
[29] = tested on: Streptococcus; test: Geometrical average of minimum bactericidal concentration was determined in isosensitest broth against Streptococcus; type: functional
[30] = tested on: Neisseria perflava; test: Geometrical average of minimum inhibitory concentration was determined in isosensitest broth against Neisseria perfl.; type: functional
[31] = tested on: Enterobacter; test: Geometrical average of minimum inhibitory concentration was determined in isosensitest broth against Enterobacter; type: functional
[32] = tested on: Proteus; test: Geometrical average of minimum bactericidal concentration was determined in isosensitest broth against Proteus; type: functional, Proteus sp.
[33] = tested on: Sarcina; test: Geometrical average of minimum bactericidal concentration was determined in isosensitest broth against Sarcina; type: functional
[34] = tested on: Streptococcus; test: Geometrical average of minimum inhibitory concentration was determined in isosensitest broth against Streptococcus; type: functional
[35] = tested on: Klebsiella; test: Geometrical average of minimum bactericidal concentration was determined in isosensitest broth against Klebsiella; type: functional
[36] = tested on: Proteus; test: Geometrical average of minimum inhibitory concentration was determined in isosensitest broth against Proteus; type: functional, Proteus sp.
[37] = tested on: Neisseria perflava; test: Geometrical average of minimum bactericidal concentration was determined in isosensitest against Neisseria perfl.; type: functional
[38] = tested on: Staphylococcus; test: (§3) Geometrical average of minimum bactericidal concentration was determined in isosensitest against Staphylococcus; type: functional
[39] = tested on: Escherichia coli; test: Minimum inhibitory concentration against, Escherichia coli ISM with an inoculum size-0.5 mL of 10 E6 CFU/mL of suspension); type: functional
[40] = tested on: Klebsiella pneumoniae; test: Minimum inhibitory concentration against Klebsiella pneumoniae 102 with an inoculum size-0.5 mL of 10 E5 CFU/mL of suspension; type: functional
[41] = tested on: Sarcina; test: Geometrical average of minimum inhibitory concentration (MIC) in isosensitest broth against Sarcina; type: functional
[42] = tested on: Klebsiella pneumoniae; test: In vivo protective dose was determined in infected swiss mice (120/strain) infected ip Klebsiella pneumoniae 102 with an inoculum size-0.5 mL of 10 E5 CFU/mL of suspension. Activity value range is 5.27-15.35; type: functional
[43] = tested on: Streptococcus; test: Geometrical average of minimum bactericidal concentration was determined in isosensitest against Streptococcus; type: functional
[44] = tested on: Salmonella typhimurium; test: Minimum inhibitory concentration against Salmonella Typhimurium T.O with an inoculum size-0.5 mL of 10 E6 CFU/mL of suspension; type: functional, Salmonella enterica subsp. enterica serovar Typhimurium; settings: Salmonella enterica
[45] = tested on: Escherichia coli; test: In vivo protective dose was determined in infected swiss mice (120/strain) infected ip with Escherichia coli ISM with an inoculum size-0.5 mL of 10 E6 CFU/mL of suspension. Activity value range is 3.47-6.63; type: functional
[46] = tested on: Salmonella typhimurium; test: In vivo protective dose was determined in infected swiss mice (120/strain) infected ip against Salmonella Typhimurium T.O with an inoculum size-0.5 mL of 10 E6 CFU/mL of suspension; type: functional, Salmonella enterica subsp. enterica serovar Typhimurium; settings: Salmonella enterica
[47] = tested on: Bacillus; test: Geometrical average of minimum bactericidal concentration was determined in isosensitest against Bacillus; type: functional
[48] = tested on: Alcaligenes; test: Geometrical average of minimum bactericidal concentration was determined in isosensitest against Alcaligenes; type: functional
[49] = tested on: Enterobacter; test: Geometrical average of minimum bactericidal concentration was determined in isosensitest against Enterobacter; type: functional
[50] = tested on: Escherichia coli; test: Geometrical average of minimum bactericidal concentration was determined in isosensitest broth against, Escherichia coli; type: functional
[51] = tested on: Sarcina; test: Geometrical average of minimum bactericidal concentration was determined in isosensitest against Sarcina; type: functional
[52] = Geometrical average of minimum inhibitory concentration was determined in isosensitest broth against,gram-negative strains.; type: functional
[53] = tested on: Staphylococcus; test: as §3; type: functional; remark: listed apart in the source

Structure (SMILES): Cn1nnnc1SCC1=C(C(=O)O)N2C(=O)[C@@H](NC(=O)/C(=N/NCC(=O)O)c3csc(N)n3)[C@H]2SC1
- MIC [1]: 8.59 µg/mL (≈ 15.5 µM)
- MIC [2]: 18 µg/mL (≈ 32.5 µM)

Structure (SMILES): Cn1nnnc1SCC1=C(C(=O)O)N2C(=O)[C@@H](NC(=O)/C(=N/NC(N)=O)c3csc(N)n3)[C@H]2SC1
- MIC [1]: 16.8 µg/mL (≈ 31.2 µM)
- MIC [2]: 76.5 µg/mL (≈ 142 µM)

Structure (SMILES): Cn1nnnc1SCC1=C(C(=O)O)N2C(=O)[C@@H](NC(=O)/C(=N\NC(N)=O)c3csc(N)n3)[C@H]2SC1
- MIC [1]: 3.54 µg/mL (≈ 6.56 µM)
- MIC [2]: 18.6 µg/mL (≈ 34.6 µM)

Structure (SMILES): CCOC(=O)CN/N=C(/C(=O)N[C@@H]1C(=O)N2C(C(=O)O)=C(CSc3nnnn3C)CS[C@H]12)c1csc(N)n1
- MIC [1]: 5.45 µg/mL (≈ 9.35 µM)
- MIC [2]: 13.2 µg/mL (≈ 22.7 µM)

Structure (SMILES): CC(=O)OCC1=C(C(=O)O)N2C(=O)[C@@H](NC(=O)/C(=N/N)c3csc(N)n3)[C@H]2SC1
- MIC [1]: 1.96 µg/mL (≈ 4.45 µM)
- MIC [2]: 7.35 µg/mL (≈ 16.7 µM)

Structure (SMILES): CO/N=C(\C(=O)N[C@@H]1C(=O)N2C(C(=O)O)=C(COC(C)=O)CS[C@H]12)c1csc(N)n1 [CEFOTAXIME]
- MBC [3]: 1.97 µg/mL (≈ 4.33 µM)
- ED50 [4]: 0.27 mg/kg
- MBC [5]: < 0.09 µg/mL
- MIC [6]: 21.8 µg/mL (≈ 47.9 µM)
- MIC [7]: 2.09 µg/mL (≈ 4.59 µM)
- MBC [8]: 3.12 µg/mL (≈ 6.85 µM)
- MIC [9]: 0.12 µg/mL (≈ 0.263 µM)
- MBC [10]: 0.25 µg/mL (≈ 0.549 µM)
- MBC [11]: 22.3 µg/mL (≈ 48.9 µM)
- MIC [12]: 0.24 µg/mL (≈ 0.527 µM)
- MIC [13]: 0.17 µg/mL (≈ 0.373 µM)
- MBC [14]: 0.38 µg/mL (≈ 0.834 µM)
- MIC [15]: 0.17 µg/mL (≈ 0.373 µM)
- MIC [16]: 5.25 µg/mL (≈ 11.5 µM)
- MIC [17]: 0.09 µg/mL (≈ 0.198 µM)
- ED50 [18]: 3.8 mg/kg
- MIC [19]: 25 µg/mL (≈ 54.9 µM)
- MIC [20]: 1.56 µg/mL (≈ 3.43 µM)
- MBC [21]: 0.49 µg/mL (≈ 1.08 µM)
- MIC [22]: 0.55 µg/mL (≈ 1.21 µM)
- MBC [23]: 25 µg/mL (≈ 54.9 µM)
- MIC [24]: 0.04 µg/mL (≈ 0.0878 µM)
- MIC [25]: 1.61 µg/mL (≈ 3.53 µM)
- MBC [26]: 3.23 µg/mL (≈ 7.09 µM)
- MIC [27]: 0.13 µg/mL (≈ 0.285 µM)
- MBC [28]: 29.7 µg/mL (≈ 65.3 µM)
- MBC [29]: 35.4 µg/mL (≈ 77.6 µM)
- MIC [30]: < 0.09 µg/mL
- MIC [31]: 0.31 µg/mL (≈ 0.681 µM)
- MBC [32]: 0.3 µg/mL (≈ 0.659 µM)
- MBC [33]: 0.04 µg/mL (≈ 0.0878 µM)
- MIC [34]: 12.3 µg/mL (≈ 27.1 µM)
- MBC [35]: 0.14 µg/mL (≈ 0.307 µM)
- MIC [36]: 0.08 µg/mL (≈ 0.176 µM)

Structure (SMILES): CO/N=C(\C(=O)N[C@@H]1C(=O)N2C(C(=O)O)=C(COC(N)=O)CS[C@H]12)c1ccco1 [CEFUROXIME]
- MIC [6]: > 100 µg/mL
- MIC [7]: 1.11 µg/mL (≈ 2.62 µM)
- MBC [37]: 0.78 µg/mL (≈ 1.84 µM)
- MBC [38]: 1.67 µg/mL (≈ 3.94 µM)
- MIC [39]: 2.2 µg/mL (≈ 5.18 µM)
- MIC [9]: 3.71 µg/mL (≈ 8.74 µM)
- MBC [11]: > 100 µg/mL
- MIC [12]: 3.12 µg/mL (≈ 7.35 µM)
- MBC [14]: 6.7 µg/mL (≈ 15.8 µM)
- MIC [40]: 12.5 µg/mL (≈ 29.5 µM)
- MIC [41]: 0.39 µg/mL (≈ 0.919 µM)
- ED50 [42]: 9 mg/kg
- MIC [15]: 2.2 µg/mL (≈ 5.18 µM)
- MIC [16]: 10.5 µg/mL (≈ 24.8 µM)
- MIC [17]: 12.4 µg/mL (≈ 29.2 µM)
- MBC [43]: 59.5 µg/mL (≈ 140 µM)
- MIC [44]: 1.56 µg/mL (≈ 3.68 µM)
- ED50 [45]: 4.8 mg/kg
- MIC [19]: 35.4 µg/mL (≈ 83.3 µM)
- MIC [20]: 50 µg/mL (≈ 118 µM)
- ED50 [46]: > 90 mg/kg
- MBC [21]: 28 µg/mL (≈ 66 µM)
- MIC [25]: 1.06 µg/mL (≈ 2.5 µM)
- MBC [47]: 35.4 µg/mL (≈ 83.3 µM)
- MBC [48]: 100 µg/mL (≈ 236 µM)
- MIC [30]: 0.39 µg/mL (≈ 0.919 µM)
- MIC [31]: 7.01 µg/mL (≈ 16.5 µM)
- MBC [32]: 3.9 µg/mL (≈ 9.19 µM)
- MIC [34]: 15.1 µg/mL (≈ 35.7 µM)
- MBC [49]: 25 µg/mL (≈ 58.9 µM)
- MBC [50]: 4.42 µg/mL (≈ 10.4 µM)
- MBC [51]: 0.55 µg/mL (≈ 1.3 µM)
- MIC [52]: 10.6 µg/mL (≈ 25.1 µM)
- MBC [53]: 17.7 µg/mL (≈ 41.7 µM)
- MBC [35]: 4.68 µg/mL (≈ 11 µM)
- MIC [36]: 1.97 µg/mL (≈ 4.64 µM)
